In brackets after ≈: the same amount, converted by molar mass. Where two headings read alike, the source gives them in different places.
Columns and labels:
[1] = redox-active molecules used in negolytes in ARFBs; cited from earlier work
[2] = Electrochemical properties at diluted state (cyclic voltammetry, RDE linear sweep voltammetry); format: physicochemical; settings: for k^0′O × 10^−2 apparent heterogeneous rate constant: Gileadi's equation, transfer coefficient 0.5; for E1/2 half-wave potential: LSV with RDE, 400 up to 1 000 RPM, pH 14; for DO × 10^−6 diffusion coefficient: Randles-Sevcik, scan rates 10 mV/s up to 20 V/s; for Peak-to-peak separation ΔEp at pH 14: pH 14 (KOH 1 M), 5.10^−3 M, scan rate 100 mV·s^−1, third cycle
Description: Cyclic voltammetry experiments were performed at a 100 mV/s scan rate for compounds A, B and B-M3CH in a solution at pH 14 (KOH 1 M).
The electrochemical experiments were conducted on an electrochemical working station (BioLogic Science Instruments VSP) at 25° C. using a three-electrodes electrochemical cell, where a Pt wire was employed at the counter electrode (CE), an Ag/AgCl/KCl saturated electrode immerged in a 1 M KOH solution protected from the cell by a porous frit glass served as the reference electrode (RE) and a rotating disc electrode (RDE) mounted with a glassy carbon (GC, 7.069 mm^2) disk was used as the working electrode (WE), respectively. The potential was reported relative to the normal hydrogen electrode (NHE), which was converted from the Ag/AgCl reference electrode (0.230 V versus NHE). The ohmic drop between the WE and RE is determined by current interrupt experiments and leads to a value close to 0.7069 Ω·cm^2. All cyclic voltammetry experiments were conducted by alleviating most of this resistance (85%) using the potentiostat manual ohmic drop compensation. Before each electrochemical measurement, the GC disk electrode was polished using SiC P4000 foil.
Each recorded cyclic voltammetry of the reduction and the oxidation process of a compound at a given scan rate is analyzed by measuring ip,a=anodic peak current; ip,c=cathodic peak current; v=scan rate; Ep,a=anodic peak potential; Ep,c=cathodic peak potential; ΔEp=Ep,a−Ep,c; the apparent standard redox potential E^0′=[…].
Linear sweep voltammetry (LSV) using the RDE at various rotation speed (400 up to 1 000 RPM) were performed to determine the averaged half-wave potential E1/2.
The oxidation (DO) and the reduction (DR) diffusion coefficients were calculated using Randles-Sevcik (RS) equation ip=0.4463.n^3/2.F^3/2.A.C.v^1/2.D^1/2.R^−1/2.T^−1/2=Cte.v^1/2.D^1/2, n=number of electrons exchanged during the redox process; F=faradaic number=96485 C·mol^−1; A=electrode active surface; C=redox active molecule concentration; R=gas constant=8.314 J·K^−1·mol^−1; T=bulk temperature=299 K. The experiments are conducted by cyclic voltammetry at various scan rates ranging from 10 mV/s up to 20 V/s.
A graphic of |ip,a| and |ip,c|=f(Cte.v^1/2) is plotted, if the redox process is reversible and diffusion controlled, the peak current should be proportional to the square root of the scan rate. The diffusion coefficients (oxidation and reduction) are then calculated by taking the square of the regression lines slopes. Diffusion coefficients (oxidation and reduction processes) are evaluated by plotting the peak current versus a constant multiplied by the square root of the scan rate. The plots regression line gives a straight line with perfect correlation coefficient (100%) confirming that the redox process is reversible and diffusion controlled. The square of each slope gives the associated coefficient diffusion in cm^2·s^−1.
The apparent heterogeneous rate constant during reduction (k^0′O) process was calculated using Gileadi's equation (C. Russel, W. Jaenicke, Electrochimica Acta, Vol 27, No. 12, 1745-1750, 1982) log k^0′=−0.48.α+0.52+log[(n.F.α.vc.D)/(2.303.R.T)]^1/2; vc is the critical scan rate, it is calculated by plotting the peak potentials versus the logarithm of the scan rates, and is more precise when a very wide range of scan rates is used, which is the case here (0.010 up to 20 V·s^−1), it is determined at the x-axis of the point of intersection of the regression lines drawn at low and high scan rates; a is the transfer coefficient that is supposed to be close to 0.5 for all presented compounds.
Peak-to-peak separation ΔEp values were determined from the third cycle of each cyclic voltammogram and are gathered in the following table 2.
The standard redox process reversibility evaluation is performed in diluted state, at 5 mM of concentration, at pH 14 buffered with 1 M of KOH. […]

[3] = Water solubility by shake-flask method in alkaline aqueous solution; format: physicochemical; settings: for solubility: aqueous buffer, thermodynamic from solid
Description: The solubility of the compounds was evaluated in aqueous solution at various pH by shake-flask method. An aqueous solution (containing either KOH 1 M, NaOH 1 M, or a mixture of KOH 0.5 M and NaOH 0.5 M) is added over 100 mg of compound by 20 μL portions until complete solubilization. We obtain an approximate range of solubility values calculated as following:
Smax˜(m/M)/V; m=mass of evaluated compound(g);M=molar mass of evaluated compound(g·mol^−1);V=added volume(L).

[4] = Post-cycling analyses of the negolyte (cyclic voltammetry and 1H NMR before and after cycling); format: physicochemical; settings: for chemical stability in the application: conclusion from cycling and post-cycling analyses; for degradation during the cycling test (1H NMR in D2O before/after): negolyte after cycling
Description: FIG. 3: Cyclic voltammetry (3rd cycle) of the negolyte (black line) before the cycling test and (grey line) after cycling test, recorded at a scan rate of 100 mV·s^−1.
FIG. 4: ^1H NMR spectra of the negolyte, recorded in D2O between 0 and 10 ppm, (black line) before and (grey line) after the cycling test.
A preliminary electrochemical test was performed on the negolyte before and after the cycling test (FIG. 3).
Further analyses were performed using ^1H NMR spectroscopy, see FIG. 4.
A preliminary electrochemical test was performed on the negolyte before and after thousands of cycles and a few months of cycling test (FIG. 7).
Further analyses were performed using ^1H NMR spectroscopy, see FIG. 8.
A preliminary electrochemical test was performed on the negolyte before and after the cycling test (FIG. 10) which lasted for more than 1000 cycles, or 25 days of constant cycling.
Further analyses were performed using ^1H NMR spectroscopy, see FIG. 11.

[5] = aqueous KOH 1 M solution, aqueous KOH 1 M, shake-flask, approximate, read-out: solubility estimated, KOH (1M)
[6] = aqueous NaOH 1 M solution, aqueous NaOH 1 M, shake-flask, approximate, read-out: solubility estimated, NaOH (1M)
[7] = aqueous alkaline solution, aqueous alkaline environment, read-out: solubility in aqueous alkaline environment
[8] = aqueous mixture of KOH 0.5 M and NaOH 0.5 M, mixture of KOH 0.5 M and NaOH 0.5 M, shake-flask, approximate, read-out: solubility estimated, KOH 0.5M + NaOH 0.5M

O=C1c2ccc(S(=O)(=O)O)cc2C(=O)c2cc(S(=O)(=O)O)ccc21 [AQ-2,7-DS]
DO × 10^−6 [1]: 3.8 × 10^−6 cm^2/s
k^0′O × 10^−2 [1]: 0.72 × 10^−2 cm/s

C[N+](C)(C)CCC[n+]1ccc(-c2cc[n+](CCC[N+](C)(C)C)cc2)cc1.[Cl-].[Cl-].[Cl-].[Cl-] [BTMAP-Vi]
DO × 10^−6 [1]: 3.3 × 10^−6 cm^2/s
k^0′O × 10^−2 [1]: 2.2 × 10^−2 cm/s

Cc1c(C(=O)O)c(O)cc2c1C(=O)c1c(O)cccc1C2=O [Compound A]
k^0′O × 10^−2 apparent heterogeneous rate constant [2]: 0.78 × 10^−2 cm/s
E1/2 half-wave potential [2]: −0.59 V vs NHE
DO × 10^−6 diffusion coefficient [2]: 3.65 × 10^−6 cm^2/s
Peak-to-peak separation ΔEp at pH 14 [2]: 56 mV
solubility [3, 5]: 480 mM (≈ 143 mg/mL)
solubility [3, 6]: 320 mM (≈ 95.4 mg/mL)
solubility [3, 7]: > 300 mM
solubility [3, 8]: 490 mM
oxidation not originally present in the negolyte ([4]; after cycling): −0.57 V vs Ag/AgCl
chemical stability in the application [4]: low chemical stability
degradation during the cycling test (1H NMR in D2O before/after) [4]: degraded into multiple compounds

Cc1cc(O)cc2c1C(=O)c1c(O)cccc1C2=O [Compound B, 3,8-dihydroxy-1-methylanthracene-9,10-dione]
k^0′O × 10^−2 apparent heterogeneous rate constant [2]: 0.80 × 10^−2 cm/s
E1/2 half-wave potential [2]: −0.57 V vs NHE
DO × 10^−6 diffusion coefficient [2]: 2.99 × 10^−6 cm^2/s
Peak-to-peak separation ΔEp at pH 14 [2]: 40 mV
solubility [3, 5]: 580 mM (≈ 147 mg/mL)
solubility [3, 6]: 500 mM (≈ 127 mg/mL)
solubility [3, 7]: > 300 mM
solubility [3, 8]: 630 mM
decrease of redox signature current intensity after cycling ([4]; after thousands of cycles and a few months, ascribed to osmosis dilution): 30-35%
degradation during the cycling test (1H NMR in D2O before/after) [4]: does not undergo any degradation

Cc1cc(OCCCC(=O)O)cc2c1C(=O)c1c(O)cccc1C2=O [Compound B-M3CH, 4-((5-hydroxy-4-methyl-9,10-dioxo-9,10-dihydroanthracen-2-yl)oxy)butanoic acid]
k^0′O × 10^−2 apparent heterogeneous rate constant [2]: 2.47 × 10^−2 cm/s
E1/2 half-wave potential [2]: −0.49 V vs NHE
DO × 10^−6 diffusion coefficient [2]: 4.58 × 10^−6 cm^2/s
Peak-to-peak separation ΔEp at pH 14 [2]: 30 mV
solubility ([3]; aqueous KOH 1 M or NaOH 1 M solution, KOH 1 M or NaOH 1 M, read-out: solubility in ionic environment containing one type of alkaline cation): ~150 mM (≈ 51 mg/mL)
solubility [3, 5]: 150 mM (≈ 51 mg/mL)
solubility [3, 6]: 150 mM (≈ 51 mg/mL)
solubility [3, 8]: ~430 mM
solubility estimated, KOH 0.5M + NaOH 0.5M ([3]; mixture of KOH 0.5 M and NaOH 0.5 M, shake-flask, approximate): 430 mM
increase of redox signature current intensity after cycling ([4]; after more than 1000 cycles, 25 days, ascribed to osmosis concentration): about 30%
chemical stability in the application [4]: increased its stability
degradation during the cycling test (1H NMR in D2O before/after) [4]: does not undergo any degradation

O=C(O)CCCOc1ccc2c(c1)C(=O)c1ccc(OCCCC(=O)O)cc1C2=O [DBEAQ]
DO × 10^−6 [1]: 1.58 × 10^−6 cm^2/s
k^0′O × 10^−2 [1]: 0.70 × 10^−2 cm/s

O=C1c2ccc(O)cc2C(=O)c2ccc(O)cc21 [DHAQ]
DO × 10^−6 [1]: 4.8 × 10^−6 cm^2/s
k^0′O × 10^−2 [1]: 0.70 × 10^−2 cm/s

O=C1C=C(O)C(=O)C=C1O [DHBQ]
DO × 10^−6 [1]: 3.66 × 10^−6 cm^2/s
k^0′O × 10^−2 [1]: 0.21 × 10^−2 cm/s

O=C1c2ccc(OCCCP(=O)(O)O)cc2C(=O)c2ccc(OCCCP(=O)(O)O)cc21 [DPPEAQ]
DO × 10^−6 [1]: 1.37 × 10^−6 cm^2/s

Cc1cc2nc3c(=O)[nH]c(=O)nc-3n(C[C@H](O)[C@H](O)[C@H](O)COP(=O)([O-])O)c2cc1C.[Na+] [Flavine FMN-Na]
DO × 10^−6 [1]: 1.3 × 10^−6 cm^2/s
k^0′O × 10^−2 [1]: 0.53 × 10^−2 cm/s
